How the values were obtained:
[1] = biological target: DGKζ (Homo sapiens, UniProt Q13574); assay: In vitro DGKζ inhibition assay (ADP-Glo); type: biochemical; details: His-tagged human recombinant enzyme; 0.4 nM DGKζ, 30 μM ATP, 20 μM DLG; 90 minute incubation; ADP-Glo luminescence
Description: (§1) The DGKα and DGKζ biochemical reactions were performed using His-tagged human recombinant enzymes (Signal Chem, DGKα, #D21-10BH; DGKζ, #D30-10H)) and DLG (Dilauroyl-sn-glycerol) lipid substrate (Signal Chem, #D430-59). ADP-Glo assay was performed using ADP-Glo™ kinase Assay kit (Promega, #V9104). The reactions were carried out in assay buffer containing 40 mM Tris, pH 7.5, 0.1% CHAPS, 0.1% Prionex, 40 mM NaCl, 5 mM MgCl2, 1 mM CaCl2, and 1 mM DTT. DGKα reactions contained 0.1 nM DGKα, 50 μM ATP, and 20 μM DLG. And DGKζ reactions contained 0.4 nM DGKζ, 30 μM ATP, and 20 μM DLG. For compound inhibition studies, 40 nL test compound in DMSO was added to wells of white polystyrene plates in 384-well (Greiner, #784075) or 1536-well format (Greiner, #782075). Compounds were added with top concentration of 2 mM with 11 point, 3-fold dilution series. Enzyme solution (contains 2× DGK enzyme concentration in 1× assay buffer) was added to the plate in 2 μL/well volume, followed by 2 μL/well of substrate solution (contains 2× concentration of ATP and DLG substrate in 1× assay buffer). Plates were then centrifuged for 1 min at 1200 RPM and sealed or lidded. For 4 μL reaction volume, test compounds were therefore diluted 100× to final top concentration of 20 μM. After 90 minute incubation, reactions were quenched by addition of 2 μL/well Promega ADP-Glo Reagent, followed by centrifugation and lidding. After 60 min incubation, 2 μL/well Promega Kinase Detection Reagent was added, plates centrifuged, and incubated for 30 min. Plates were then read using Luminescence method on BMG PHERAstar FSX plate reader. Percent inhibition was calculated and IC50s were determined using 4-parameter fit in Genedata Screener. Labcyte Echo acoustic dispenser was used for compound addition, and Formulatrix Tempest liquid handler was used for all reagent dispenses.

[2] = biological target: T1, DGKα (Homo sapiens, UniProt P23743); assay: In vitro DGKα inhibition assay (ADP-Glo); type: biochemical; details: His-tagged human recombinant enzyme; 0.1 nM DGKα, 50 μM ATP, 20 μM DLG; 90 minute incubation; ADP-Glo luminescence
T1 construct: His; purchased Signal Chem D21-10BH
T1 sequence (P23743 whole entry): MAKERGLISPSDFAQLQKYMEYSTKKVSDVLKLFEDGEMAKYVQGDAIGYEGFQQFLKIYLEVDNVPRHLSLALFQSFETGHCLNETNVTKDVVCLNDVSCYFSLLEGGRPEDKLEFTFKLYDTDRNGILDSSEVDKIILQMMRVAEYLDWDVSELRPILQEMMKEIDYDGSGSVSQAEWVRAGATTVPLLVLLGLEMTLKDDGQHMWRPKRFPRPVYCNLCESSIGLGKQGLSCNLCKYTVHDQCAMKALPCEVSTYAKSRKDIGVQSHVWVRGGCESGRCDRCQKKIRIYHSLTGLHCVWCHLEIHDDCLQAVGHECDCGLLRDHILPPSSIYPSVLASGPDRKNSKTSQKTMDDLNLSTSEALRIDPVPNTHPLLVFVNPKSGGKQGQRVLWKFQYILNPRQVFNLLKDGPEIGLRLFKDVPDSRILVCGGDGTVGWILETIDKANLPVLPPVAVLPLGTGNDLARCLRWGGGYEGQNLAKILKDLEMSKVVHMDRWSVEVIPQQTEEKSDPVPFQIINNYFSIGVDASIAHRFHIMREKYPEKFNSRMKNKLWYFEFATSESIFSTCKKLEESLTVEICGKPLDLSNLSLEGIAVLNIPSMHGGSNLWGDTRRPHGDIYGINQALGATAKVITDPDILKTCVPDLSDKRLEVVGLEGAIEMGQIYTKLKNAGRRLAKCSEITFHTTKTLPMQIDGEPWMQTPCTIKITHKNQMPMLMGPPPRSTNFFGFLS
Description: as §1

DGKζ, sequence (Q13574 whole entry): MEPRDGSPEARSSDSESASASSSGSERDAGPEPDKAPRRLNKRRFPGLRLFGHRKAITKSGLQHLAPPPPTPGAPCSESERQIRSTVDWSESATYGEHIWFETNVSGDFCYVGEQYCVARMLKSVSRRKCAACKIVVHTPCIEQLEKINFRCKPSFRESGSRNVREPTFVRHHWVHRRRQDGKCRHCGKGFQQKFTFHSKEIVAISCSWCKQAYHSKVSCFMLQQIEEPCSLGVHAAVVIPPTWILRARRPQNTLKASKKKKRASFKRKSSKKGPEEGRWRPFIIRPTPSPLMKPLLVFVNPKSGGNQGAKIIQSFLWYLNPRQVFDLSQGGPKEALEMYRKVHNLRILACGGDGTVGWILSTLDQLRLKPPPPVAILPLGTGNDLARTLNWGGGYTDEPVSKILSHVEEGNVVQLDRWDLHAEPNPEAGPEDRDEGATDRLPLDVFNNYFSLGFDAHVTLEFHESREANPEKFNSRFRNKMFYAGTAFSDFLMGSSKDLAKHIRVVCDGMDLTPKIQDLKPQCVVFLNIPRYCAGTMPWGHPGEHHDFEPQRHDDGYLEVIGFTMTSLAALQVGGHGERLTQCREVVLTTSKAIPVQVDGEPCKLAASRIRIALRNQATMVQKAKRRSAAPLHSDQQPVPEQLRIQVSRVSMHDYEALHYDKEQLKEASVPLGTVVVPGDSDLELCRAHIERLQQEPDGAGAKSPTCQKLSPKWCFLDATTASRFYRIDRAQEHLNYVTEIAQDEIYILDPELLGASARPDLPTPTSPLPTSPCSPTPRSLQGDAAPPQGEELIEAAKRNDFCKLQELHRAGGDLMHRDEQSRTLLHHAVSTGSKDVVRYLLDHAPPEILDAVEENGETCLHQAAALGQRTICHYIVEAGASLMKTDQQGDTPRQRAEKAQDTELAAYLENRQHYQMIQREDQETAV

IC50 [1] [nM] | IC50 [2] [nM] | Compound
≤ 20 | ≤ 20 | [2H]c1c([2H])c([2H])c(Oc2ccc(/C=C(\F)c3cncc(N4CCC(F)(F)C4)n3)c(N3CCCC4(CCN(CC)CC4)C3)c2C(F)(F)F)c([2H])c1[2H] [Example 22, (Z)-2-(6-(2-(6-(3,3-Difluoropyrrolidin-1-yl)pyrazin-2-yl)-2-fluorovinyl)-3-(phenoxy-d5)-2-(trifluoromethyl)phenyl)-9-ethyl-2,9-diazaspiro[5.5]undecane]
≤ 20 | ≤ 20 | CCN1CCC2(CC1)CN(c1c(/C=C(\F)c3nccc(-c4ccnnc4)n3)ccc(Oc3ccccc3)c1C(F)(F)F)CCO2 [Example 24, (Z)-9-Ethyl-4-(6-(2-fluoro-2-(4-(pyridazin-4-yl)pyrimidin-2-yl)vinyl)-3-phenoxy-2-(trifluoromethyl)phenyl)-1-oxa-4,9-diazaspiro[5.5]undecane]
≤ 20 | ≤ 20 | COCCN1CCC2(CC1)CN(c1c(/C=C(\F)c3cccc(-c4ccnnc4)n3)ccc(Oc3ccccc3)c1C(F)(F)F)CCO2 [Example 26, (Z)-4-(6-(2-Fluoro-2-(6-(pyridazin-4-yl)pyridin-2-yl)vinyl)-3-phenoxy-2-(trifluoromethyl)phenyl)-9-(2-methoxyethyl)-1-oxa-4,9-diazaspiro[5.5]undecane]
≤ 20 | ≤ 20 | F/C(=C\c1ccc(Oc2ccccc2)c(C(F)(F)F)c1N1CCOC2(CCN(CC3CC3)CC2)C1)c1cccc(-c2ccnnc2)n1 [Example 27, (Z)-9-(Cyclopropylmethyl)-4-(6-(2-fluoro-2-(6-(pyridazin-4-yl)pyridin-2-yl)vinyl)-3-phenoxy-2-(trifluoromethyl)phenyl)-1-oxa-4,9-diazaspiro[5.5]undecane]
≤ 20 | ≤ 20 | F/C(=C\c1ccc(Oc2ccccc2)c(C(F)(F)F)c1N1CCCC2(CCN(CC3CC3)CC2)C1)c1nccc(-c2ccnnc2)n1 [Example 28, (Z)-9-(Cyclopropylmethyl)-2-(6-(2-fluoro-2-(4-(pyridazin-4-yl)pyrimidin-2-yl)vinyl)-3-phenoxy-2-(trifluoromethyl)phenyl)-2,9-diazaspiro[5.5]undecane]
≤ 20 | ≤ 20 | F/C(=C\c1ccc(Oc2ccccc2)c(C(F)(F)F)c1N1CCCC2(CCN(CC3CC3)CC2)C1)c1cncc(-c2ccnnc2)n1 [Example 29, (Z)-9-(Cyclopropylmethyl)-2-(6-(2-fluoro-2-(6-(pyridazin-4-yl)pyrazin-2-yl)vinyl)-3-phenoxy-2-(trifluoromethyl)phenyl)-2,9-diazaspiro[5.5]undecane]
≤ 20 | ≤ 20 | COCCN1CCC2(CCCN(c3c(/C=C(\F)c4nccc(-c5ccnnc5)n4)ccc(Oc4ccccc4)c3C(F)(F)F)C2)CC1 [Example 31, (Z)-2-(6-(2-Fluoro-2-(4-(pyridazin-4-yl)pyrimidin-2-yl)vinyl)-3-phenoxy-2-(trifluoromethyl)phenyl)-9-(2-methoxyethyl)-2,9-diazaspiro[5.5]undecane]
≤ 20 | ≤ 20 | CCN1CCC2(CC1)CN(c1c(/C=C(\F)c3cncc(-c4ccnnc4)n3)ccc(Oc3ccccc3F)c1C(F)(F)F)CCO2 [Example 35, (Z)-9-Ethyl-4-(6-(2-fluoro-2-(6-(pyridazin-4-yl)pyrazin-2-yl)vinyl)-3-(2-fluorophenoxy)-2-(trifluoromethyl)phenyl)-1-oxa-4,9-diazaspiro[5.5]undecane]
≤ 20 | 20 to 200 | F/C(=C\c1ccc(Oc2ccccc2F)c(C(F)(F)F)c1N1CCOC2(CCN(CC3CC3)CC2)C1)c1cncc(-c2ccnnc2)n1 [Example 36, (Z)-9-(Cyclopropylmethyl)-4-(6-(2-fluoro-2-(6-(pyridazin-4-yl)pyrazin-2-yl)vinyl)-3-(2-fluorophenoxy)-2-(trifluoromethyl)phenyl)-1-oxa-4,9-diazaspiro[5.5]undecane]
≤ 20 | ≤ 20 | F/C(=C\c1ccc(Oc2ccc(F)cc2F)c(C(F)(F)F)c1N1CCCC2(CCN(CC3CC3)CC2)C1)c1cncc(-c2ccnnc2)n1 [Example 38, (Z)-9-(Cyclopropylmethyl)-2-(3-(2,4-difluorophenoxy)-6-(2-fluoro-2-(6-(pyridazin-4-yl)pyrazin-2-yl)vinyl)-2-(trifluoromethyl)phenyl)-2,9-diazaspiro[5.5]undecane]
≤ 20 | ≤ 20 | F/C(=C\c1ccc(Oc2ccccc2F)c(C(F)(F)F)c1N1CCCC2(CCN(CC3CC3)CC2)C1)c1nccc(-c2ccnnc2)n1 [Example 39, (Z)-9-(Cyclopropylmethyl)-2-(6-(2-fluoro-2-(4-(pyridazin-4-yl)pyrimidin-2-yl)vinyl)-3-(2-fluorophenoxy)-2-(trifluoromethyl)phenyl)-2,9-diazaspiro[5.5]undecane]

More lines, now with the values behind:

Compound | IC50 [1] [nM] | IC50 [2] [nM]
F/C(=C\c1ccc(Oc2ccccc2)c(C(F)(F)F)c1N1CCOC2(CCN(CC3CC3)CC2)C1)c1nccc(-c2ccnnc2)n1 [Example 23, (Z)-9-(Cyclopropylmethyl)-4-(6-(2-fluoro-2-(4-(pyridazin-4-yl)pyrimidin-2-yl)vinyl)-3-phenoxy-2-(trifluoromethyl)phenyl)-1-oxa-4,9-diazaspiro[5.5]undecane] | ≤ 20 | 20 to 200
COCCN1CCC2(CC1)CN(c1c(/C=C(\F)c3nccc(-c4ccnnc4)n3)ccc(Oc3ccccc3)c1C(F)(F)F)CCO2 [Example 25, (Z)-4-(6-(2-Fluoro-2-(4-(pyridazin-4-yl)pyrimidin-2-yl)vinyl)-3-phenoxy-2-(trifluoromethyl)phenyl)-9-(2-methoxyethyl)-1-oxa-4,9-diazaspiro[5.5]undecane] | ≤ 20 | ≤ 20
F/C(=C\c1ccc(Oc2ccccc2)c(C(F)(F)F)c1N1CCCC2(CCN(C3CCC3)CC2)C1)c1nccc(-c2ccnnc2)n1 [Example 30, (Z)-9-Cyclobutyl-2-(6-(2-fluoro-2-(4-(pyridazin-4-yl)pyrimidin-2-yl)vinyl)-3-phenoxy-2-(trifluoromethyl)phenyl)-2,9-diazaspiro[5.5]undecane] | ≤ 20 | ≤ 20
CCN1CCC2(CCCN(c3c(/C=C(\F)c4nccc(-c5ccnnc5)n4)ccc(Oc4ncccc4F)c3C(F)(F)F)C2)CC1 [Example 32, (Z)-9-Ethyl-2-(6-(2-fluoro-2-(4-(pyridazin-4-yl)pyrimidin-2-yl)vinyl)-3-((3-fluoropyridin-2-yl)oxy)-2-(trifluoromethyl)phenyl)-2,9-diazaspiro[5.5]undecane] | ≤ 20 | ≤ 20
CCN1CCC2(CCCN(c3c(/C=C(\F)c4cccc(-c5ccnnc5)n4)ccc(Oc4ncccc4F)c3C(F)(F)F)C2)CC1 [Example 33, (Z)-9-Ethyl-2-(6-(2-fluoro-2-(6-(pyridazin-4-yl)pyridin-2-yl)vinyl)-3-((3-fluoropyridin-2-yl)oxy)-2-(trifluoromethyl)phenyl)-2,9-diazaspiro[5.5]undecane] | ≤ 20 | ≤ 20
CCN1CCC2(CC1)CN(c1c(/C=C(\F)c3cncc(-c4ccnnc4)n3)ccc(Oc3cccc(F)c3)c1C(F)(F)F)CCO2 [Example 34, (Z)-9-Ethyl-4-(6-(2-fluoro-2-(6-(pyridazin-4-yl)pyrazin-2-yl)vinyl)-3-(3-fluorophenoxy)-2-(trifluoromethyl)phenyl)-1-oxa-4,9-diazaspiro[5.5]undecane] | ≤ 20 | ≤ 20
F/C(=C\c1ccc(Oc2ccccc2F)c(C(F)(F)F)c1N1CCCC2(CCN(CC3CC3)CC2)C1)c1cncc(-c2ccnnc2)n1 [Example 37, (Z)-9-(Cyclopropylmethyl)-2-(6-(2-fluoro-2-(6-(pyridazin-4-yl)pyrazin-2-yl)vinyl)-3-(2-fluorophenoxy)-2-(trifluoromethyl)phenyl)-2,9-diazaspiro[5.5]undecane] | ≤ 20 | ≤ 20
CCN1CCC2(CCCN(c3c(/C=C(\F)c4nccc(-c5ccnnc5)n4)ccc(Oc4ccccc4F)c3C(F)(F)F)C2)CC1 [Example 40, (Z)-9-Ethyl-2-(6-(2-fluoro-2-(4-(pyridazin-4-yl)pyrimidin-2-yl)vinyl)-3-(2-fluorophenoxy)-2-(trifluoromethyl)phenyl)-2,9-diazaspiro[5.5]undecane] | ≤ 20 | ≤ 20
CCN1CCC2(CC1)CN(c1c(/C=C(\F)c3nccc(-c4ccnnc4)n3)ccc(Oc3ccccc3F)c1C(F)(F)F)CCO2 [Example 41, (Z)-9-Ethyl-4-(6-(2-fluoro-2-(4-(pyridazin-4-yl)pyrimidin-2-yl)vinyl)-3-(2-fluorophenoxy)-2-(trifluoromethyl)phenyl)-1-oxa-4,9-diazaspiro[5.5]undecane] | ≤ 20 | ≤ 20

— US20240217989A1, “Heteroaryl Fluoroalkenes As DGK Inhibitors” (Incyte Corporation, priority 2022, published 2024)
